Measurements from US20210355121A1, “FUSED TRICYCLIC KRAS INHIBITORS” (Incyte Corporation, priority 2020, published 2021).

Tests used:
[1] = biological target: KRAS G12V (Homo sapiens, UniProt P01116, G12V); assay: KRAS G12V GDP-GTP exchange assay (bodipy-GDP for GppNHp, with SOS1); type: biochemical; conditions: 2.5 nM bodipy loaded KRAS G12V, 3 hours after GppNHp-SOS1; read-out: G12V_exchange (KRAS_G12V exchange assay IC50)
Protocol: (§1) The inhibitor potency of the exemplified compounds was determined in a fluorescence based guanine nucleotide exchange assay, which measures the exchange of bodipy-GDP (fluorescently labeled GDP) for GppNHp (Non-hydrolyzable GTP analog) to generate the active state of KRAS in the presence of SOS1 (guanine nucleotide exchange factor). Inhibitors were serially diluted in DMSO and a volume of 0.1 μL was transferred to the wells of a black low volume 384-well plate. 5 μL/well volume of bodipy-loaded KRAS G12C diluted to 5 nM in assay buffer (25 mM Hepes pH 7.5, 50 mM NaCl, 10 mM MgCl2 and 0.01% Brij-35) was added to the plate and pre-incubated with inhibitor for 2 hours at ambient temperature. Appropriate controls (enzyme with no inhibitor or with a G12C inhibitor (AMG-510)) were included on the plate. The exchange was initiated by the addition of a 5 μL/well volume containing 1 mM GppNHp and 300 nM SOS1 in assay buffer. The 10 μL/well reaction concentration of the bodipy-loaded KRAS G12C, GppNHp, and SOS1 were 2.5 nM, 500 uM, and 150 nM, respectively. The reaction plates were incubated at ambient temperature for 2 hours, a time estimated for complete GDP-GTP exchange in the absence of inhibitor. For the KRAS G12D and G12V mutants, similar guanine nucleotide exchange assays were used with 2.5 nM as final concentration for the bodipy loaded KRAS proteins and with 4 hours and 3 hours incubation after adding GppNHp-SOS1 mixture for G12D and G12V respectively. A cyclic peptide described to selectively bind G12D mutant (Sakamoto et al., BBRC 484.3 (2017), 605-611) or internal compounds with confirmed binding were used as positive controls in the assay plates. Fluorescence intensities were measured on a PheraStar plate reader instrument (BMG Labtech) with excitation at 485 nm and emission at 520 nm.
(§2) Either GraphPad prism or XLfit was used to analyze the data. The IC50 values were derived by fitting the data to a four parameter logistic equation producing a sigmoidal dose-response curve with a variable Hill coefficient. Prism equation: Y=Bottom+(Top−Bottom)/(1+10^((Log IC50−X)*Hill slope)); XLfit equation: Y=(A+((B−A)/(1+((X/C)^D)))) where X is the logarithm of inhibitor concentration and Y is the response.

[2] = biological target: KRAS G12D (Homo sapiens, UniProt P01116, G12D); assay: KRAS G12D GDP-GTP exchange assay (bodipy-GDP for GppNHp, with SOS1); type: biochemical; conditions: 2.5 nM bodipy loaded KRAS G12D, 4 hours after GppNHp-SOS1; read-out: G12D_exchange (KRAS_G12D exchange assay IC50)
Chain of KRAS G12D (P01116 1-188 isoform P01116-2 G12D): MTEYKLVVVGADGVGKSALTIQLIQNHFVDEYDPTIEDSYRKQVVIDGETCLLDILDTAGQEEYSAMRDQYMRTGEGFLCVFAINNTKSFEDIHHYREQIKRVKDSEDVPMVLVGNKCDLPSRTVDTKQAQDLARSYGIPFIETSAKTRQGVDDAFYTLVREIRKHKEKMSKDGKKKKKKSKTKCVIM
Protocol: as §1, §2

Chain of KRAS G12V (P01116 1-188 isoform P01116-2 G12V): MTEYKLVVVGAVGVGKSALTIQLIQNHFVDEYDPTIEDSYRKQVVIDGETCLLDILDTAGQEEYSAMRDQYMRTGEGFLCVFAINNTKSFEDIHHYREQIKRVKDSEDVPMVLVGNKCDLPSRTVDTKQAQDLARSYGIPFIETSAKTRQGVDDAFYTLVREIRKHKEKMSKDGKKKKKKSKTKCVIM

SMILES | IC50 [1] [µM] | IC50 [2] [µM]
CCOc1nc2c(F)c(-c3cc(O)cc4ccccc34)c(CCC#N)cc2c2c1cc(CCC(=O)N(C)C)n2[C@H]1[C@H]2CN[C@@H]1C2 [Example 48, 3-(1-((1R,4R,5S)-2-azabicyclo[2.1.1]hexan-5-yl)-8-(2-cyanoethyl)-4-ethoxy-6-fluoro-7-(3-hydroxynaphthalen-1-yl)-1H-pyrrolo[3,2-c]quinolin-2-yl)-N,N-dimethylpropanamide] | ≤ 0.1 | ≤ 0.1
COC(=O)CCc1c(N2CC(N(C)C)C2)c2c(OC)nc3c(F)c(-c4cc(O)cc5ccccc45)c(CCC#N)cc3c2n1[C@H]1[C@H]2CN[C@@H]1C2 [Example 49, methyl 3-(1-((1R,4R,5S)-2-azabicyclo[2.1.1]hexan-5-yl)-8-(2-cyanoethyl)-3-(3-(dimethylamino)azetidin-1-yl)-6-fluoro-7-(3-hydroxynaphthalen-1-yl)-4-methoxy-1H-pyrrolo[3,2-c]quinolin-2-yl)propanoate] | 0.1 to 1 | 0.1 to 1
CN1CCC[C@H]1COc1nc2c(F)c(-c3cccc4ccc(F)cc34)c(CCC#N)cc2c2c1cc(CCC(=O)N1CCC1)n2C1C2CNC1C2 (stereo partly drawn) [Example 50, 3-(2-(3-(azetidin-1-yl)-3-oxopropyl)-1-(2-azabicyclo[2.1.1]hexan-5-yl)-6-fluoro-7-(7-fluoronaphthalen-1-yl)-4-(((S)-1-methylpyrrolidin-2-yl)methoxy)-1H-pyrrolo[3,2-c]quinolin-8-yl)propanenitrile] | ≤ 0.1 | ≤ 0.1
